Data published in ChEMBL document CHEMBL4359860, “Tacrine-O-protected phenolics heterodimers as multitarget-directed ligands against Alzheimer's disease: Selective subnanomolar BuChE inhibitors” (Eur J Med Chem, 2019).
The source made the active and inactive calls. No cut-off for these calls is given here.

Columns and labels:
[1] = target: Cholinesterase (Equus caballus) (UniProt P81908)
Acetylcholinesterase [2] = target: Acetylcholinesterase (Homo sapiens, UniProt P22303); assay: Inhibition of human recombinant AChE expressed in HEK293 cells using […] as substrate preincubated with enzyme for 20 mins followed by substrate addition and measured after 5 mins by Ellman's method
Acetylcholinesterase (Homo sapiens, UniProt P22303), sequence (P22303 whole entry): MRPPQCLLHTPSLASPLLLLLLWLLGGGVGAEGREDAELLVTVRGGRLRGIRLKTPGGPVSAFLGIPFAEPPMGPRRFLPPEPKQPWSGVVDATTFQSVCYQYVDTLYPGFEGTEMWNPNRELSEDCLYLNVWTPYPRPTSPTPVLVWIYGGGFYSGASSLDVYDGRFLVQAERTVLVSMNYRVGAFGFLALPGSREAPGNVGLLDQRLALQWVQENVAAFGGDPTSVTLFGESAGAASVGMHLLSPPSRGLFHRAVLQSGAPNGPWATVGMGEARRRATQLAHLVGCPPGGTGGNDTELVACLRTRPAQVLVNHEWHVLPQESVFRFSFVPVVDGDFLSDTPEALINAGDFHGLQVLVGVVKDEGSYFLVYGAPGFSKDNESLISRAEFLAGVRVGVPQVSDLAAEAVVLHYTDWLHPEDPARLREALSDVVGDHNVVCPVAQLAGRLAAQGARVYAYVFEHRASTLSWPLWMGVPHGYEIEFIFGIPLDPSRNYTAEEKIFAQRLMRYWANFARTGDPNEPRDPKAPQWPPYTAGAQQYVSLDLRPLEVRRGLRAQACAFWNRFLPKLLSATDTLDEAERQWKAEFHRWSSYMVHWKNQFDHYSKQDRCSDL

Cholinesterase [3] = target: T1, Cholinesterase (Homo sapiens, UniProt P06276); assay: Inhibition of human serum BuChe by Ellman's method
T1 sequence (P06276 whole entry): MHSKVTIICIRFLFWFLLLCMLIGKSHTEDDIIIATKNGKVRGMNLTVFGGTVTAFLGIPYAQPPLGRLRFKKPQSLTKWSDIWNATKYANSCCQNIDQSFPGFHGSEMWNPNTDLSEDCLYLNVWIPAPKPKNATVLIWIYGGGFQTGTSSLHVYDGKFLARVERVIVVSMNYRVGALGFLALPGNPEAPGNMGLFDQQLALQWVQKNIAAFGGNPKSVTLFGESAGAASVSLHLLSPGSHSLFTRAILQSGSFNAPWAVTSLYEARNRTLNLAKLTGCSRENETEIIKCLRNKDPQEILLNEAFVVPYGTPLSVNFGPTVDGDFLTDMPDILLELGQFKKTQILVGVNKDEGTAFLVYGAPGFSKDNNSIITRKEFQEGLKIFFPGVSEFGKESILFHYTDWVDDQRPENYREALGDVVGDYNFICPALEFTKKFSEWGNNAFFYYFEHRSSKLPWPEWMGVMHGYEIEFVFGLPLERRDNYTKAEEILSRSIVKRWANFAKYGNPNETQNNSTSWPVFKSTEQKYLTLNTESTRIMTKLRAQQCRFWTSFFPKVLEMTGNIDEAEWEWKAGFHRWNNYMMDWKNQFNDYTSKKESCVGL

Acetylcholinesterase [4] = target: T2, Acetylcholinesterase (Electrophorus electricus, UniProt O42275)
T2 sequence (O42275 whole entry): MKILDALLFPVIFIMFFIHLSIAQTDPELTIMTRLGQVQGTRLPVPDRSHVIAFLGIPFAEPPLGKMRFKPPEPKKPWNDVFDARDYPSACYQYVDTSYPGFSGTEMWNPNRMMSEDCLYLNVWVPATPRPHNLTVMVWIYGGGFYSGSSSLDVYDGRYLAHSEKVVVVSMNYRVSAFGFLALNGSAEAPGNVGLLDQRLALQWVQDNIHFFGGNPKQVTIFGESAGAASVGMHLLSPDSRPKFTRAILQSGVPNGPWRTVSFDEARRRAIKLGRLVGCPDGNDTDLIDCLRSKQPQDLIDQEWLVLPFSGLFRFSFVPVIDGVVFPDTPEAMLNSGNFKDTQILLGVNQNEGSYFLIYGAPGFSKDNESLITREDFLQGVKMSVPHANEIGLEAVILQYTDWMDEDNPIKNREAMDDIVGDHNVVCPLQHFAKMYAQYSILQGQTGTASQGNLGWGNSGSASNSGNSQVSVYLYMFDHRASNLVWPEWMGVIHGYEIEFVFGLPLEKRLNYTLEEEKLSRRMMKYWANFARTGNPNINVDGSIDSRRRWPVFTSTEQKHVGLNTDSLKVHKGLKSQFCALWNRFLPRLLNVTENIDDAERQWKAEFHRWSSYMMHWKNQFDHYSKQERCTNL
Description: Inhibition of electric eel AChE assessed as dissociation constant for enzyme-inhibitor complex using acetylthiocholine iodide as substrate measured for 125 secs by Ellman's method

Acetylcholinesterase [5] = target: T2, Acetylcholinesterase; remark: listed apart in the source
Description: Inhibition of electric eel AChE assessed as dissociation constant for enzyme-substrate-inhibitor complex using acetylthiocholine iodide as substrate measured for 125 secs by Ellman's method

Cholinesterase [6] = target: T3, Cholinesterase (Equus caballus, UniProt P81908)
T3 sequence (P81908 whole entry): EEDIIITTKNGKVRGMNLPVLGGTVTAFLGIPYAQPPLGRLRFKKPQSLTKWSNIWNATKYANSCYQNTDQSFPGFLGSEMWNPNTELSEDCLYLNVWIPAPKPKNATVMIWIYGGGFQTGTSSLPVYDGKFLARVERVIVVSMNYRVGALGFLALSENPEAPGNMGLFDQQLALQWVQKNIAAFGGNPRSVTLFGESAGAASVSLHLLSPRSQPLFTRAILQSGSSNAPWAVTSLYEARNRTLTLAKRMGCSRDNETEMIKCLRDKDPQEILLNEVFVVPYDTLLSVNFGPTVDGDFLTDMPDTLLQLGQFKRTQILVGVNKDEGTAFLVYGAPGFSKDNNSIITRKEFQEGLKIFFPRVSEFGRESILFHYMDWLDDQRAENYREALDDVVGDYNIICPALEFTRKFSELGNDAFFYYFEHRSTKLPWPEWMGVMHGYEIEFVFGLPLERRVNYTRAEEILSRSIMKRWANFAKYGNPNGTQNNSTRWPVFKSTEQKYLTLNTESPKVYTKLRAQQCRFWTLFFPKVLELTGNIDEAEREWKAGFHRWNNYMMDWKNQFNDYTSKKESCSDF
Description: Inhibition of equine serum BuChE assessed as dissociation constant for enzyme-substrate-inhibitor complex using butyrylthiocholine iodide as substrate measured for 125 secs by Ellman's method

[7] = target: Amyloid-beta precursor protein (Homo sapiens) (UniProt P05067); conditions: at 50 µM
Amyloid-beta precursor protein (Homo sapiens), sequence (P05067 whole entry): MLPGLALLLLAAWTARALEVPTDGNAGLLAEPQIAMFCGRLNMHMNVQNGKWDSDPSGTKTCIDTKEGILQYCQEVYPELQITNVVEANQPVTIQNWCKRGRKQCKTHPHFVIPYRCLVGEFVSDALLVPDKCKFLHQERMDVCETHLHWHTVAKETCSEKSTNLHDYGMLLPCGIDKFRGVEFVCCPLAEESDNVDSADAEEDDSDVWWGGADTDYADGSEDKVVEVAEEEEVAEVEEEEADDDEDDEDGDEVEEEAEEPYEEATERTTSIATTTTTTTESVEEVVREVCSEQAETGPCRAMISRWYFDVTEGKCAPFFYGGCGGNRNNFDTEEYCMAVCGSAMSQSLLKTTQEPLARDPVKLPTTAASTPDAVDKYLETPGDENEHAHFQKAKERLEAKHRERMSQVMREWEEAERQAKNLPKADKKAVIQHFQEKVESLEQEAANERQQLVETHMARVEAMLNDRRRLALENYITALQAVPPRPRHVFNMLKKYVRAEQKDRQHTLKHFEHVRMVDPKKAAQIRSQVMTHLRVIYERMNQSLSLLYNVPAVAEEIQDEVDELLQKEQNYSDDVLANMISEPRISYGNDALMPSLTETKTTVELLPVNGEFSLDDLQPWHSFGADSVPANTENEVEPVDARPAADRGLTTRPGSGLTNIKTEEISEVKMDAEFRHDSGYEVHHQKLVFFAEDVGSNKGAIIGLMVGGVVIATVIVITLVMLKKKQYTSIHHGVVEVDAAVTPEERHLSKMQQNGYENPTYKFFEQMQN
Description: Inhibition of amyloid beta (1 to 42) (unknown origin) self aggregation at 50 uM incubated for 48 hrs by thioflavin-T fluorescence method relative to control

[8] = target: Cholinesterase (Equus caballus) (UniProt P81908); remark: listed apart in the source
Cholinesterase [9] = target: T3, Cholinesterase; remark: listed apart in the source
Description: Inhibition of equine serum BuChE assessed as dissociation constant for enzyme-inhibitor complex using butyrylthiocholine iodide as substrate measured for 125 secs by Ellman's method

A549 = assay: Antiproliferative activity against human A549 cells assessed as growth inhibition after 48 hrs by SRB assay; assay type: functional; conditions: A549, 48 h
HBL-100 = assay: Antiproliferative activity against human HBL100 cells assessed as growth inhibition after 48 hrs by SRB assay; assay type: functional; conditions: HBL-100, 48 h
HeLa = assay: Antiproliferative activity against human HeLa cells assessed as growth inhibition after 48 hrs by SRB assay; assay type: functional
SW1573 = assay: Antiproliferative activity against human SW1573 cells assessed as growth inhibition after 48 hrs by SRB assay; assay type: functional; conditions: SW1573, 48 h
T47D [10] = assay: Antiproliferative activity against human T47D cells assessed as growth inhibition after 48 hrs by SRB assay; assay type: functional
WiDr [11] = assay: Antiproliferative activity against human WiDr cells assessed as growth inhibition after 48 hrs by SRB assay; assay type: functional
[12] = Cytotoxicity against human hTERT-BJ cells assessed as growth inhibition after 48 hrs by SRB assay; assay type: cell-based
Primary neuron = assay: Neuroprotective activity against serum/K+ deprivation induced cytotoxicity in rat primary neuronal cells up to 10 uM by MTT assay; assay type: functional, cell-based
[13] = tested on: Cerebellar granule neurone; assay: Neuroprotective activity against 6-OHDA-induced cytotoxicity in rat primary cerebellar granule neuron at 1 to 25 uM by MTT assay; assay type: functional, cell-based
[14] = tested on: Cerebellar granule neurone; assay: Cytotoxicity in rat Primary cerebellar granule neuron assessed as cell viability up to 5 uM after 24 hrs by MTT assay; assay type: cell-based
[15] = Cytotoxicity against human HepG2 cells assessed as cell survival at 1 to 25 uM after 24 hrs by MTT assay relative to control; assay type: cell-based; conditions: read-out: Activity
[16] = Stability of compound in human plasma at 10 uM measured up to 360 mins by LC-MS analysis; assay type: ADME, cell-free; conditions: 6 h
Cholinesterase [17] = target: T1, Cholinesterase; assay: Potency index, ratio of tacrine IC50 to compound IC50 for human serum BuChe by Ellman's method
[18] = Cytotoxicity in rat Primary cerebellar granule neuron assessed as cell viability at 1 uM after 24 hrs by MTT assay; assay type: cell-based, Cerebellar granule neurone; conditions: primary cerebellar granule neurons, read-out: Activity
HepG2 = assay: Cytotoxicity against human HepG2 cells at 1 to 25 uM after 24 hrs by MTT assay; assay type: cell-based; conditions: hepg2, 24 h
T47D [19] = assay: Potency index, ratio of 5-FU GI50 to compound GI50 for human T47D cells after 48 hrs by SRB assay; assay type: functional
WiDr [20] = assay: Potency index, ratio of 5-FU GI50 to compound GI50 for human WiDr cells after 48 hrs by SRB assay; assay type: functional
[21] = Selectivity index, ratio of GI50 for human hTERT-BJ cells to GI50 for human T47D cells after 48 hrs by SRB assay; assay type: toxicity; conditions: hTERT-BJ cells and T47D cells, read-out: RatioGI50
[22] = Selectivity index, ratio of GI50 for human hTERT-BJ cells to GI50 for human WiDr cells after 48 hrs by SRB assay; assay type: toxicity; conditions: hTERT-BJ cells and WiDr cells, read-out: RatioGI50

Cholinesterase (Equus caballus), sequence (P81908 whole entry): as the sequence (P81908 whole entry) above

Compound | IC50 (Acetylcholinesterase [2]) [nM] | IC50 (Cholinesterase [3]) [nM] | Ki (Acetylcholinesterase [4]) [nM] | Ki (Acetylcholinesterase [5]) [nM] | Ki (Cholinesterase [6]) [nM] | Ki (Cholinesterase [9]) [nM] | further results
Oc1ccc(CCOCCCCCNc2c3c(nc4ccccc24)CCCC3)cc1 | 142 | 6.06 | 140 | 100 | 4.5 | – | inhibition [1]: Active; inhibition [7]: 54.4%
Oc1ccc(CNc2c3c(nc4ccccc24)CCCC3)cc1 | – | – | 370 | 81 | 3.2 | 12 | inhibition [8]: Active
c1ccc(COc2ccc(CCNc3c4c(nc5ccccc35)CCCC4)cc2OCc2ccccc2)cc1 | – | – | 1600 | 610 | 1.1 | 22 | –
c1ccc2c(N3CCCC3)c3c(nc2c1)CCCC3 | – | – | 3200 | – | 304 | 1200 | GI50 (A549): 24000 nM; GI50 (HBL-100): 27000 nM; GI50 (HeLa): 18000 nM; GI50 (SW1573): 26000 nM; GI50 (T47D [10]): 18000 nM; GI50 (WiDr [11]): 21000 nM; GI50 at 48 h [12]: 50000 nM
COc1ccc(CNCCCCCNc2c3c(nc4ccccc24)CCCC3)cc1OC | – | – | 160 | 120 | 9.9 | 30 | –
Oc1ccc(CCOCCCCCNc2c3c(nc4ccccc24)CCCC3)cc1O | 542 | 35.6 | 210 | 77 | 9 | 43 | inhibition [8]: Active
Oc1ccc(CNc2c3c(nc4ccccc24)CCCC3)cc1O | 100 | 74.8 | 190 | 190 | 3.2 | 25 | –
COc1ccc(CCOCCCCCNc2c3c(nc4ccccc24)CCCC3)cc1OC | 168 | 0.515 | 170 | 55 | 1.9 | 7 | Activity (Primary neuron): Active; Activity [13]: inactive; Activity [14]: Non-Toxic; viability at 24 h, 25 µM [15]: 60 to 70%; Stability [16]: Stable; Ratio IC50 (Cholinesterase [17]): 85; inhibition [7]: 63.8%
O=c1[nH]cc(F)c(=O)[nH]1 [FLUOROURACIL] | – | – | – | – | – | – | GI50 (HBL-100): 5500 nM; GI50 (HeLa): 15000 nM; GI50 (SW1573): 4300 nM; GI50 (T47D [10]): 47000 nM; GI50 (WiDr [11]): 49000 nM
Oc1ccc(CCNc2c3c(nc4ccccc24)CCCC3)cc1 | – | – | 110 | 32 | – | 184 | inhibition [1]: Active
C(=N\c1c2c(nc3ccccc13)CCCC2)/c1ccc(OCc2ccccc2)c(OCc2ccccc2)c1 | – | – | 24000 | 20000 | 173 | 637 | –
c1ccc(COc2ccc(CCNc3c4c(nc5ccccc35)CCCC4)cc2)cc1 | – | – | 1600 | 610 | 1.1 | 22 | –
c1ccc(COc2ccc(CCOCCCCCNc3c4c(nc5ccccc35)CCCC4)cc2OCc2ccccc2)cc1 | 506 | 0.497 | 340 | 130 | 2.7 | 4.6 | Activity [13]: inactive; viability at 24 h, 1 µM [18]: 50%; Activity (HepG2): Toxic; Ratio IC50 (Cholinesterase [17]): 85; inhibition [7]: 75.3%
c1ccc(COc2ccc(CCOCCCCCNc3c4c(nc5ccccc35)CCCC4)cc2)cc1 | 454 | 6.95 | 110 | 110 | 1.5 | 1.9 | inhibition [7]: 70%
Oc1ccc(/C=N/c2c3c(nc4ccccc24)CCCC3)cc1O | 609 | 41.5 | 2100 | 820 | 1.9 | 11 | –
COc1ccc(CNc2c3c(nc4ccccc24)CCCC3)cc1OC | – | – | 640 | 210 | 6.4 | 31 | –
Oc1cc(/C=N/c2c3c(nc4ccccc24)CCCC3)cc(O)c1O | 1040 | 120 | 400 | 170 | 5.8 | 51 | –
Oc1ccc(CNCCCCCCNc2c3c(nc4ccccc24)CCCC3)cc1O | 29 | 22.9 | 120 | 58 | 1.7 | 7.9 | –
C(=N\c1c2c(nc3ccccc13)CCCC2)/c1cc(OCc2ccccc2)c(OCc2ccccc2)c(OCc2ccccc2)c1 | – | – | 2300 | 3000 | 192 | 704 | –
Oc1ccc(CCNc2c3c(nc4ccccc24)CCCC3)cc1O | – | – | 870 | 590 | 28 | 128 | –
C(=N\c1c2c(nc3ccccc13)CCCC2)/c1ccc(OCc2ccccc2)cc1 | – | – | 39000 | 23000 | 643 | 2920 | –
COc1ccc(/C=N/c2c3c(nc4ccccc24)CCCC3)cc1OC | – | – | 2500 | 1900 | 35 | 271 | inhibition [8]: Active; GI50 (A549): 34000 nM; GI50 (HBL-100): 43000 nM; GI50 (HeLa): 43000 nM; GI50 (SW1573): 39000 nM; GI50 (T47D [10]): 35000 nM; GI50 (WiDr [11]): 31000 nM; GI50 at 48 h [12]: 16000 nM
COc1ccc(CCOCCCCCNc2c3c(nc4ccccc24)CCCC3)cc1 | 216 | 2.92 | 75 | 75 | 2.9 | 29 | inhibition [7]: 63.5%
Oc1ccc(/C=N/c2c3c(nc4ccccc24)CCCC3)cc1 | 1470 | 194 | 3000 | 1800 | 17 | – | inhibition [1]: Active
BrCCCCCOCCc1ccc(OCc2ccccc2)cc1 | – | – | – | – | – | – | GI50 (A549): 93000 nM; GI50 (HBL-100): > 100000 nM; GI50 (HeLa): > 100000 nM; GI50 (SW1573): > 100000 nM; GI50 (T47D [10]): 92000 nM; GI50 (WiDr [11]): > 100000 nM
c1ccc2c(N3CCCCC3)c3c(nc2c1)CCCC3 | – | – | 1800 | 2500 | 275 | 1900 | GI50 (A549): 11000 nM; GI50 (HBL-100): 19000 nM; GI50 (HeLa): 13000 nM; GI50 (SW1573): 13000 nM; GI50 (T47D [10]): 5200 nM; GI50 (WiDr [11]): 4500 nM; GI50 at 48 h [12]: 25000 nM; RatioGI50 (T47D [19]): 10; RatioGI50 (WiDr [20]): 10; selectivity ratio at 48 h [21]: 5; selectivity ratio at 48 h [22]: 5
